Measured values: patent EP3613735A1, “NOVEL SIRT 1 ACTIVATOR AND MEDICINAL USE THEREOF” (Pusan National University Industry - University Cooperation …, priority 2017, dated 2018)

What was measured:
[1] = biological target: T1, SIRT 1 (Homo sapiens, UniProt Q96EB6); test: SIRT 1 fluorometric drug discovery kit (AK-555, Biomol), deacetylation of Fluor de Lys-SIRT 1 substrate; assay type: biochemical; conditions: 100 µM candidate vs 100 µM resveratrol positive control; 25 µM Fluor de Lys-Sirt1, 25 µM NAD+
T1 sequence (Q96EB6 1-747): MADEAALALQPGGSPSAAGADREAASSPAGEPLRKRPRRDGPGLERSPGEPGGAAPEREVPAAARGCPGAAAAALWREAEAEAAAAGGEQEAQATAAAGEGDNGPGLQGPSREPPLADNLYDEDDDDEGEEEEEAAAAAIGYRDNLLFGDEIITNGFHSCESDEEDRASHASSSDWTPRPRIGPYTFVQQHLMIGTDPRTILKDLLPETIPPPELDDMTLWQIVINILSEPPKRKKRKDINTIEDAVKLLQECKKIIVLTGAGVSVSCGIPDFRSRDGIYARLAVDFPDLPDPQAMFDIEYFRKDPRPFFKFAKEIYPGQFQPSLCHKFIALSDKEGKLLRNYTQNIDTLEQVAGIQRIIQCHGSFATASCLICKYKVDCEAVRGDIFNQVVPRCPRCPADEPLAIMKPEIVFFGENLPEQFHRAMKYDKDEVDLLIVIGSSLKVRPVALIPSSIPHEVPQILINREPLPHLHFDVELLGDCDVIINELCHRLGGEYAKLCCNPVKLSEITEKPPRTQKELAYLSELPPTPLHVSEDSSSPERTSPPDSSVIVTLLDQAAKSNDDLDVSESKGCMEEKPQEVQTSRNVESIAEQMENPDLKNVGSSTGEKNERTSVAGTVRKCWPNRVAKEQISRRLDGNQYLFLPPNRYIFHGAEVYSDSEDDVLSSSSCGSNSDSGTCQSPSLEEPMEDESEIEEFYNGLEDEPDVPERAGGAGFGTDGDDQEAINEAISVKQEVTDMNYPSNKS
Protocol: SIRT 1 activity of candidate SIRT 1 activator compounds synthesized based on the benzo[d]furan backbone were measured using a SIRT 1 fluorometric drug discovery kit (AK-555, Biomol). Briefly, as the substrate for analysis, 0.2 U/L of Fluor de Lys-SIRT 1 substrate developer mixture is used, which is amino acid 379382 of human […] AC), and SIRT 1 incubated with cosubstrate NAD^+. The degree of initial deacetylation of SIRT 1 for 100 μM candidate was measured using 100 μM resveratrol as a positive control in 25 μM Fluor de Lys-Sirt1 and 25 μM NAD^+ environments. The reaction was stopped using Fluor de LysTM Developer II/2 mM nicotinamide, followed by measuring fluorescence (Excitation: 360 nm, Emission: 460 nm). The SIRT 1 activity for candidate SIRT 1 activator compounds synthesized based on the benzo[d]oxazole backbone were measured using SIRT 1 fluorometric drug discovery kit (AK-555, Biomol). Briefly, 0.2 U/L of Fluor de Lys-SIRT 1 substrate developer mixture liquid was used as the analytical substrate, meaning amino acid 379382 of human […] […] The initial degree of deacetylation of SIRT 1 for 100 μM candidate was measured using 100 μM resveratrol as a positive control in 25 μM Fluor de Lys-Sirt1 and 25 μM NAD+. The reaction was stopped using Fluor de LysTM Developer II/2 mM nicotinamide, followed by fluorescence (Excitation: 360 nm, Emission: 460 nm).

[2] = tested on: CPT1 and ACOX1; test: Liver mRNA expression of fat oxidation related genes, quantitative real-time PCR; assay type: in vivo, mouse; conditions: db/db mice, oral 5 mg/kg daily for 4 weeks, treated vs db/db group
Protocol: Since obesity and insulin resistance are representative diseases directly related to the development of non-alcoholic fatty liver, the improvement effect of Compound 32u on fatty liver was analyzed. Compound 32u was orally administered to db/db mice (9 weeks old) at a concentration of 5 mg/kg daily for 4 weeks. First, the accumulation of fat in the liver, the most representative phenotype, was measured. Briefly, about 50 mg of liver was quantified in cold phosphate buffered saline (PBS) or 0.9% sodium chloride (NaCl) and crushed, followed by treating with mixed solvent of chloroform and methanol (MeOH) in a volume ratio of 2:1 and reacted for 2 hours. […] Thereafter, the amount of neutral fat was measured by absorbance using a neutral fat measurement kit (Stanbio laboratory, TX USA). In order to confirm the corresponding mechanism, mRNA expression of genes related to fat synthesis and degradation was analyzed. […] For the synthesized cDNA, a quantative real-time polymerase chain reaction (quantative real-time PCR) was performed to target the desired gene as a primer and quantify it in real time. Since obesity and insulin resistance are representative diseases directly related to the development of non-alcoholic fatty liver, the improvement effect of Compound 70c on fatty liver was analyzed. […] First, the accumulation of fat in the liver, the most representative phenotype, was measured. […]

Row | SMILES | SIRT 1 activity [1] | expression of fat oxidation related genes (CPT1 and ACOX1) [2]
1 | Cl.O=C(Nc1ccccc1-c1cc2ccc(CN3CCNCC3)cc2o1)c1ccc2ccccc2c1 [Compound 32u, N-(2-(6-(Piperazin-1-ylmethyl)benzofuran-2-yl)phenyl)-2-naphthamide hydrochloride] | higher SIRT 1 activity effect than resveratrol | not significantly different
2 | O=C(Nc1ccccc1-c1nc2cc(CN3CCN(C4CCCCC4)CC3)ccc2o1)c1ccc2ccccc2c1 [Compound 70c, N-(2-(5-((4-Cyclohexylpiperazin-1-yl)methyl)benzo[d]oxazol-2-yl)phenyl)-2-naphthamide] | higher SIRT 1 activity effect than resveratrol | not significantly different
